Source: PMC8137473, “Preclinical trial of a MAP4K4 inhibitor to reduce infarct size in the pig: does cardioprotection in human stem cell-derived myocytes predict success in large mammals?” (Basic Research in Cardiology, 2021)

How the values were obtained:
[1] = test system: heart-type fatty acid binding protein (hFABP); experiment: efficacy study: plasma hFABP release (ELISA); format: in vivo, swine
Method: Next, an efficacy study was performed, in adherence to published guidelines for rigor and reproducibility, to evaluate the postulated benefit of DMX-10001 in a large-mammal model of MI. Briefly, 36 closed-chest swine (41 ± 2 kg) were subjected to regional ischemia by occluding the left anterior descending coronary artery (LAD) distal to the first diagonal branch for 60 min, followed by 24 h of reperfusion. Treatment with DMX-10001 (60 mg/kg/h for 0.5 h, followed by 17 mg/kg/h for 23.5 h) versus the vehicle was initiated 20 min prior to reperfusion and continued for 1 day. After 2 h of reperfusion, animals were allowed to recover from anesthesia. At 24 h of reperfusion, the infarct area (IA), area of no-reflow (NR), and area at ischemic risk (AAR) were determined. […] Heart-type fatty acid binding protein (hFABP) release was measured, as a biomarker that correlates with IS and NR in swine at least as well as cardiac troponin I [30]. […] Levels of DMX-10001 and DMX-5804 were determined by liquid chromatography–mass spectrometry (Pharmidex, London, UK). Porcine hFABP was analyzed as described: plasma samples were thawed on ice, diluted 10 × using the standard diluent provided with the kit, and analyzed by enzyme-linked immunosorbent assays according to the manufacturer’s instructions (Life Diagnostics, West Chester, PA). […]

porcine model of MI = experiment: efficacy study: hemodynamics and LV function; format: in vivo, swine; conditions: for 2-D ejection fraction / LV end-diastolic lumen surface / LV end-diastolic wall thickness (infarct region) / LV end-systolic lumen surface / LV end-systolic wall thickness (infarct region) / Systolic Wall thickening (infarct region): echocardiography; for DAP / HR / MAP / SAP: fluid-filled catheter
Method: Next, an efficacy study was performed, in adherence to published guidelines for rigor and reproducibility, to evaluate the postulated benefit of DMX-10001 in a large-mammal model of MI. Briefly, 36 closed-chest swine (41 ± 2 kg) were subjected to regional ischemia by occluding the left anterior descending coronary artery (LAD) distal to the first diagonal branch for 60 min, followed by 24 h of reperfusion. Treatment with DMX-10001 (60 mg/kg/h for 0.5 h, followed by 17 mg/kg/h for 23.5 h) versus the vehicle was initiated 20 min prior to reperfusion and continued for 1 day. After 2 h of reperfusion, animals were allowed to recover from anesthesia. At 24 h of reperfusion, the infarct area (IA), area of no-reflow (NR), and area at ischemic risk (AAR) were determined. Transthoracic short-axis B-mode echocardiograms and measurements of LV pressure and its first derivative (LVdP/dt) were obtained at baseline and at 24 h of reperfusion. LV pressure–volume measurements were obtained at 24 h of reperfusion. Heart-type fatty acid binding protein (hFABP) release was measured, as a biomarker that correlates with IS and NR in swine at least as well as cardiac troponin I [30].
A transthoracic short-axis B-mode echocardiogram (ZS3, Zonare Medical Systems, Mountain View, CA) was performed to determine LV contractile performance. LV pressure and its first derivative (LVdP/dt) were determined using a micro-manometer-tipped catheter (SPR-350S, Millar Inc., Houston, TX), before infarct induction and again before killing. Terminal LV pressure–volume measurements were also performed, using a 7F conductance catheter (CD Leycom, Hengelo, The Netherlands) advanced into the LV [32]. After calibration of the system, pressure–volume loops were recorded during a breath hold.
Hemodynamic and LV global function were recorded and digitized online using a three-channel data acquisition program (ATCODAS, Dataq Instruments Inc., Akron OH) and stored on a computer for off-line analysis with a program written in MATLAB (Mathworks Inc., Natick, MA). A minimum of 10 s was selected for analysis of the digitized hemodynamic signals. Pressure–volume-related data were recorded and stored on a computer for off-line analysis (CD Leycom, Hengelo, The Netherlands). Statistical significance (P < 0.05, two tailed) for changes was determined by two-way ANOVA (time point in protocol x treatment) for repeated measures, followed by post hoc testing with the Bonferonni multiple comparison test.

[2] = Millar catheter, Day 1 Baseline
[3] = Millar catheter, Day 2 End of Reperfusion
[4] = conductance catheter, End of Reperfusion
[5] = Coronary artery occlusion 15 min
[6] = Coronary artery occlusion 40 min
[7] = Coronary artery occlusion 60 min

COCCOc1ccc(-c2cn(-c3ccccc3)c3ncn(COP(=O)(O)O)c(=O)c23)cc1 [DMX-10001]
plasma level of hFABP ([1]; 60 min of reperfusion): 120 ± 19 ng/mL | plasma level of hFABP ([1]; baseline): 8 ± 2 ng/mL | LV dP/dtmax (porcine model of MI; [2]): 1830 mmHg/s | LV dP/dtmin (porcine model of MI; [2]): -2080 mmHg/s | LV dPdtP40 (porcine model of MI; [2]): 1640 mmHg/s | LV end-diastolic pressure (porcine model of MI; [2]): 8 mmHg | LV peak systolic pressure (porcine model of MI; [2]): 102 mmHg | tau (porcine model of MI; [2]): 34 ms | LV dP/dtmax (porcine model of MI; [3]): 920 mmHg/s | LV dP/dtmin (porcine model of MI; [3]): -1240 mmHg/s | LV dPdtP40 (porcine model of MI; [3]): 800 mmHg/s | LV end-diastolic pressure (porcine model of MI; [3]): 13 mmHg | LV peak systolic pressure (porcine model of MI; [3]): 78 mmHg | tau (porcine model of MI; [3]): 44 ms | 3-D ejection fraction (porcine model of MI; [4]): 34% | Cardiac output (porcine model of MI; [4]): 4.7 L/min | Heart rate (porcine model of MI; [4]): 109 beats/min | LV end-diastolic pressure (porcine model of MI; [4]): 10 mmHg | LV end-diastolic volume (porcine model of MI; [4]): 138 mL | LV end-systolic volume (porcine model of MI; [4]): 96 mL | LV peak-systolic pressure (porcine model of MI; [4]): 73 mmHg | Stroke volume (porcine model of MI; [4]): 45 mL/beat | tau (porcine model of MI; [4]): 28 ms | 2-D ejection fraction (porcine model of MI; Day 1 Baseline): 44% | LV end-diastolic lumen surface (porcine model of MI; Day 1 Baseline): 1843 mm^2 | LV end-diastolic wall thickness (infarct region) (porcine model of MI; Day 1 Baseline): 7.4 mm | LV end-systolic lumen surface (porcine model of MI; Day 1 Baseline): 1034 mm^2 | LV end-systolic wall thickness (infarct region) (porcine model of MI; Day 1 Baseline): 10.7 mm | Systolic Wall thickening (infarct region) (porcine model of MI; Day 1 Baseline): 49% | 2-D ejection fraction (porcine model of MI; Day 2 End of Reperfusion): 25% | LV end-diastolic lumen surface (porcine model of MI; Day 2 End of Reperfusion): 1916 mm^2 | LV end-diastolic wall thickness (infarct region) (porcine model of MI; Day 2 End of Reperfusion): 8.5 mm | LV end-systolic lumen surface (porcine model of MI; Day 2 End of Reperfusion): 1435 mm^2 | LV end-systolic wall thickness (infarct region) (porcine model of MI; Day 2 End of Reperfusion): 8.7 mm | Systolic Wall thickening (infarct region) (porcine model of MI; Day 2 End of Reperfusion): 3% | effect on hemodynamic and LV functional end-points after ischemia–reperfusion (porcine model of MI; efficacy study): neither worsened nor enhanced | DAP (porcine model of MI; Baseline): 75 ± 15 mmHg | HR (porcine model of MI; Baseline): 124 ± 33 bpm | MAP (porcine model of MI; Baseline): 89 ± 16 mmHg | SAP (porcine model of MI; Baseline): 107 ± 14 mmHg | DAP (porcine model of MI; [5]): 76 ± 28 mmHg | HR (porcine model of MI; [5]): 89 ± 40 bpm | MAP (porcine model of MI; [5]): 91 ± 30 mmHg | SAP (porcine model of MI; [5]): 110 ± 34 mmHg | DAP (porcine model of MI; [6]): 58 ± 16 mmHg | HR (porcine model of MI; [6]): 78 ± 31 bpm | MAP (porcine model of MI; [6]): 71 ± 17 mmHg | SAP (porcine model of MI; [6]): 88 ± 18 mmHg | DAP (porcine model of MI; [7]): 52 ± 10 mmHg | HR (porcine model of MI; [7]): 71 ± 21 bpm | MAP (porcine model of MI; [7]): 65 ± 11 mmHg | SAP (porcine model of MI; [7]): 82 ± 13 mmHg | DAP (porcine model of MI; Reperfusion (day 1) 10 min): 61 ± 13 mmHg | HR (porcine model of MI; Reperfusion (day 1) 10 min): 99 ± 22 bpm | MAP (porcine model of MI; Reperfusion (day 1) 10 min): 74 ± 13 mmHg | SAP (porcine model of MI; Reperfusion (day 1) 10 min): 91 ± 13 mmHg | DAP (porcine model of MI; Reperfusion (day 1) 30 min): 63 ± 11 mmHg | HR (porcine model of MI; Reperfusion (day 1) 30 min): 120 ± 31 bpm | MAP (porcine model of MI; Reperfusion (day 1) 30 min): 73 ± 11 mmHg | SAP (porcine model of MI; Reperfusion (day 1) 30 min): 88 ± 11 mmHg | DAP (porcine model of MI; Reperfusion (day 1) 120 min): 62 ± 9 mmHg | HR (porcine model of MI; Reperfusion (day 1) 120 min): 94 ± 26 bpm | MAP (porcine model of MI; Reperfusion (day 1) 120 min): 73 ± 9 mmHg | SAP (porcine model of MI; Reperfusion (day 1) 120 min): 87 ± 10 mmHg | DAP (porcine model of MI; Reperfusion (day 2) 22h 40 min): 56 ± 13 mmHg | HR (porcine model of MI; Reperfusion (day 2) 22h 40 min): 112 ± 24 bpm | MAP (porcine model of MI; Reperfusion (day 2) 22h 40 min): 67 ± 13 mmHg | SAP (porcine model of MI; Reperfusion (day 2) 22h 40 min): 80 ± 13 mmHg | DAP (porcine model of MI; Reperfusion (day 2) 23h 40 min): 62 ± 17 mmHg | HR (porcine model of MI; Reperfusion (day 2) 23h 40 min): 103 ± 14 bpm | MAP (porcine model of MI; Reperfusion (day 2) 23h 40 min): 75 ± 18 mmHg | SAP (porcine model of MI; Reperfusion (day 2) 23h 40 min): 91 ± 20 mmHg
